Legend:
KB/VJ300 = assay: Reversal of multidrug-resistance in vincristine-resistant human KB/VJ300 cells in presence of 0.1 ug/ml vincristine; assay type: functional, cell-based
[1] = Cytotoxicity in vincristine-resistant human KB/VJ300 cells in presence of 0.1 ug/ml vincristine; assay type: cell-based
KB = assay: Cytotoxicity against vincristine-sensitive human KB cells in presence of 0.1 ug/ml vincristine; assay type: cell-based

IC50 (KB/VJ300) | SMILES | IC50 [1] | IC50 (KB)
0.39 µg/mL | COC(=O)N1c2ccccc2[C@]23CCN4CC=C[C@]45CC[C@]12[C@@H](C5)C(=O)O3 [LAPIDILECTINE B] | – | –
4.35 µg/mL | COC(=O)[C@@H]1C[C@]23CCCN2CC[C@]2(C(=O)OC)c4ccccc4N(C(=O)OC)[C@]12CC3 [GRANDILODINE A] | – | –
– | CC[C@]1(O)C[C@H]2CN(CCc3c([nH]c4ccccc34)[C@@](C(=O)OC)(c3cc4c(cc3OC)N(C=O)[C@H]3[C@@](O)(C(=O)OC)[C@H](OC(C)=O)[C@]5(CC)C=CCN6CC[C@]43[C@@H]65)C2)C1 [VINCRISTINE] | > 25 µg/mL | > 25 µg/mL
4.11 µg/mL | COC(=O)N1c2ccccc2[C@]23CCN4C(=O)C=C[C@]45CC[C@]12[C@@H](C5)C(=O)O3 [GRANDILODINE C] | – | –
